For series [1] the following is noted: n-octanol: buffer pH 7.4; cited from earlier work.
Series [2] in a line: Stress degradation of plain TEL drug, stability indicating HPLC method. The format is physicochemical.
The conditions of series [3]: pH 3 to 9; cited from earlier work.

With `CCCc1nc2c(C)cc(-c3nc4ccccc4n3C)cc2n1Cc1ccc(-c2ccccc2C(=O)O)cc1` [TEL, Telmisartan], the “partition coefficient, log P” value in series [1] is 3.2. Moreover, the “reduction in area (HPLC)” value in series [2] (1 N NaOH at 80° C. for 8 hours) came to 64.4%. The TEL degradation result in series [2] (pH modifiers employed in low concentration) is “no TEL degradation was observed”. Further, the solubility entry in series [3] is given as “poorly soluble”.
